Data as given in ChEMBL document CHEMBL1201862, “PubChem BioAssay data set” (2004).
Activity calls are given as the source filed them.

Columns and labels:
[1] = biological target: T1, Sentrin-specific protease 7 (Homo sapiens, UniProt Q9BQF6); assay type: functional;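 also: Luminescence-based dose-response confirmation of ultra-high-throughput screening hits, measuring inhibition of SENP7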
T1 sequence (Q9BQF6 whole entry): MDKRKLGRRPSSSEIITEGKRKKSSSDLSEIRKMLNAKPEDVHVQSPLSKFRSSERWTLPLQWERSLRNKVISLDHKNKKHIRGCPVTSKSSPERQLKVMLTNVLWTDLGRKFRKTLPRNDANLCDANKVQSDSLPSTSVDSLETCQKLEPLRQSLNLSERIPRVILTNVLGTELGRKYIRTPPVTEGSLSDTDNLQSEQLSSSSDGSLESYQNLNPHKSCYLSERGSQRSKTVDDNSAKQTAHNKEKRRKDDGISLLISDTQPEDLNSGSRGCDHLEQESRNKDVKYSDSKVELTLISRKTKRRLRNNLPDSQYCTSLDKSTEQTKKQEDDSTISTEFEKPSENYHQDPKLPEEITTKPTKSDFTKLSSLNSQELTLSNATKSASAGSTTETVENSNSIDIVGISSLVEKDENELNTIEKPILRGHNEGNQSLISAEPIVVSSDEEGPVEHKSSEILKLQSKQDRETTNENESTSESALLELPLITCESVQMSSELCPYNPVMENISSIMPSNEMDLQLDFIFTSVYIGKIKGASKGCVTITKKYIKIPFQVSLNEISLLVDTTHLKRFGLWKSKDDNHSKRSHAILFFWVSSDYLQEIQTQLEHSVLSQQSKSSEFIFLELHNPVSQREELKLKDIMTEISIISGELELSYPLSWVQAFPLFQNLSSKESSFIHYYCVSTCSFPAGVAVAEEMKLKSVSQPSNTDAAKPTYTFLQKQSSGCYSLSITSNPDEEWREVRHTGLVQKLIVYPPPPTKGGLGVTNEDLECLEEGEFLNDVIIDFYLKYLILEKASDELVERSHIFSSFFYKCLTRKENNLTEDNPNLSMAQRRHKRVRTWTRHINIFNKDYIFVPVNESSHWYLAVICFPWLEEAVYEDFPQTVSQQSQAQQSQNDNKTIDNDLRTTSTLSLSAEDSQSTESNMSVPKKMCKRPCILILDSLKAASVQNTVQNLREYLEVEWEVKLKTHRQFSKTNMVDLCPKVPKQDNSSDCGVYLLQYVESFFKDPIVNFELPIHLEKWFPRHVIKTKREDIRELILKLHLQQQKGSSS

[2] = biological target: SUMO-activating enzyme (Homo sapiens, UniProt Q9UBT2); test: blockers of SAE1/SAE2–UBC9 SUMO transfer – biochemical, HTRF, uHTS, primary screen (AID 2006); assay type: protein-complex assay
[3] = biological target: T2, Dual specificity protein phosphatase 6 (Rattus norvegicus, UniProt Q64346); test: inhibition of rat DUSP6 enzyme activity – biochemical, in vitro, primary screen (AID 425)
T2 sequence (Q64346 whole entry): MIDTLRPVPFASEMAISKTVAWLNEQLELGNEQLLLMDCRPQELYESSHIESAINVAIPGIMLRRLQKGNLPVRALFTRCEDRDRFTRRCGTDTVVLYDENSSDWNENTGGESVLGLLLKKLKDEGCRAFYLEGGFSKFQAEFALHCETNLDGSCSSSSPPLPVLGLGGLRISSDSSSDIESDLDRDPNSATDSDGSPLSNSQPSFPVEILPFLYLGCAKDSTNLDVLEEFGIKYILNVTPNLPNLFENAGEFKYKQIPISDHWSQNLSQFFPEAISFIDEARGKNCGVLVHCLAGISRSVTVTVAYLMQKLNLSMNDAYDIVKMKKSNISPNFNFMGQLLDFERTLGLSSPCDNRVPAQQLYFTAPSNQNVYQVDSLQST

[4] = Fluorescence polarization-based biochemical high throughput dose response assay for activators of the Protein Kinase A-R2B (PKA-R2B) complex. [Related pubchem assays (depositor defined):AID504700, AID504704, AID504796, AID504797]
[5] = biological target: T3, Insulin-degrading enzyme (Homo sapiens, UniProt P14735); test: cellular IDE activation of Abeta substrate cleavage – fluorescence polarization, HEK cells, dose response (AID 588439); assay type: functional, cell-based
T3 sequence (P14735 whole entry): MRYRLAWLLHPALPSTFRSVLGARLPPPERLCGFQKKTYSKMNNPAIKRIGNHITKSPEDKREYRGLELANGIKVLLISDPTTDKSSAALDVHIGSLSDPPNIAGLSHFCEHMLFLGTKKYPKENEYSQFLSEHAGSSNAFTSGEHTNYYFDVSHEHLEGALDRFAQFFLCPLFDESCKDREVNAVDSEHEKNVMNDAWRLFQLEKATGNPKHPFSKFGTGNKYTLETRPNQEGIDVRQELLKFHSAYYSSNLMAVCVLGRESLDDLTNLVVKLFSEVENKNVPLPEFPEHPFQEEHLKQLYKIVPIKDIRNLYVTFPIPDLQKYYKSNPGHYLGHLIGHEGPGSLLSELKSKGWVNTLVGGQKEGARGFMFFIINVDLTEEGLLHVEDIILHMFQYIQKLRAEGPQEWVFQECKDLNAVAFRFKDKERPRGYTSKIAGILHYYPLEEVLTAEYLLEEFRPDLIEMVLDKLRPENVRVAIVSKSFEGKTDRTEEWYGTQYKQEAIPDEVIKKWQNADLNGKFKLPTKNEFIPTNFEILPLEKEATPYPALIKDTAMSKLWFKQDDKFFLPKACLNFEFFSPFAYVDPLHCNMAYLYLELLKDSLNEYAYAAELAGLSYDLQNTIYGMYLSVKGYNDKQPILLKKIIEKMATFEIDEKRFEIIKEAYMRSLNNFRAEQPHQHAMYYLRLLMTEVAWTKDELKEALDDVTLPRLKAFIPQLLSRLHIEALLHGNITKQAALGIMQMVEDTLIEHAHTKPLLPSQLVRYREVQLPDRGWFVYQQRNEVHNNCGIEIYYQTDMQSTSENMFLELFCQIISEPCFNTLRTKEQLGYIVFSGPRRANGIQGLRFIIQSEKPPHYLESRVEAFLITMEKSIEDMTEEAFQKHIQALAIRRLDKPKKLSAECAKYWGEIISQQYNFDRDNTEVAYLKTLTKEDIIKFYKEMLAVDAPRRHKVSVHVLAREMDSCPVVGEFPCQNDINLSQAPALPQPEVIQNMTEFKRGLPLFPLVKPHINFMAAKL

[6] = biological target: Casein kinase I isoform alpha (Homo sapiens, UniProt P48729); assay type: functional
[7] = biological target: Tyrosine-protein kinase ABL1 (Homo sapiens, UniProt P00519); assay type: functional
[8] = biological target: Serine/threonine-protein kinase D3 (Homo sapiens, UniProt O94806); assay type: functional;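 also: determined within a kinase panel screen, with PRKCN as the panel member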
[9] = biological target: cAMP-dependent protein kinase catalytic subunit PRKX (Homo sapiens, UniProt P51817); assay type: functional
[10] = biological target: Rho-associated protein kinase 1 (Homo sapiens, UniProt Q13464); assay type: functional;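 also: measured within a broad kinome-wide panel profiling many kinases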
[11] = biological target: Tyrosine-protein kinase Lck (Homo sapiens, UniProt P06239); assay type: functional;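 also: lck was assayed as one member of a kinase panel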
Sequence of Tyrosine-protein kinase Lck (P06239 whole entry): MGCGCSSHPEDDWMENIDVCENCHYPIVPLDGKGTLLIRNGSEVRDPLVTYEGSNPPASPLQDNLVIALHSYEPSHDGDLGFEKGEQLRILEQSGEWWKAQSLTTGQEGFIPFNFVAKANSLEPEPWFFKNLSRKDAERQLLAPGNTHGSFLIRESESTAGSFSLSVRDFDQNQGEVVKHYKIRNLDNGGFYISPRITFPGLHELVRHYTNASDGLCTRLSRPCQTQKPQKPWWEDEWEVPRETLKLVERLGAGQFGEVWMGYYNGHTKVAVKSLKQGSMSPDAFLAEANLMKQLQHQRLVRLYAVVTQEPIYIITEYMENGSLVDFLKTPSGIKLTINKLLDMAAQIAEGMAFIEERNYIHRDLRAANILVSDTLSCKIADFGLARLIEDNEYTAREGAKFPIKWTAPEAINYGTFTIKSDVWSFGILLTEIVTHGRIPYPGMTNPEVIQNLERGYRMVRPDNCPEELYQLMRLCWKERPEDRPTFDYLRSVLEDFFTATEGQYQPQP

Sequence of Serine/threonine-protein kinase D3 (O94806 whole entry): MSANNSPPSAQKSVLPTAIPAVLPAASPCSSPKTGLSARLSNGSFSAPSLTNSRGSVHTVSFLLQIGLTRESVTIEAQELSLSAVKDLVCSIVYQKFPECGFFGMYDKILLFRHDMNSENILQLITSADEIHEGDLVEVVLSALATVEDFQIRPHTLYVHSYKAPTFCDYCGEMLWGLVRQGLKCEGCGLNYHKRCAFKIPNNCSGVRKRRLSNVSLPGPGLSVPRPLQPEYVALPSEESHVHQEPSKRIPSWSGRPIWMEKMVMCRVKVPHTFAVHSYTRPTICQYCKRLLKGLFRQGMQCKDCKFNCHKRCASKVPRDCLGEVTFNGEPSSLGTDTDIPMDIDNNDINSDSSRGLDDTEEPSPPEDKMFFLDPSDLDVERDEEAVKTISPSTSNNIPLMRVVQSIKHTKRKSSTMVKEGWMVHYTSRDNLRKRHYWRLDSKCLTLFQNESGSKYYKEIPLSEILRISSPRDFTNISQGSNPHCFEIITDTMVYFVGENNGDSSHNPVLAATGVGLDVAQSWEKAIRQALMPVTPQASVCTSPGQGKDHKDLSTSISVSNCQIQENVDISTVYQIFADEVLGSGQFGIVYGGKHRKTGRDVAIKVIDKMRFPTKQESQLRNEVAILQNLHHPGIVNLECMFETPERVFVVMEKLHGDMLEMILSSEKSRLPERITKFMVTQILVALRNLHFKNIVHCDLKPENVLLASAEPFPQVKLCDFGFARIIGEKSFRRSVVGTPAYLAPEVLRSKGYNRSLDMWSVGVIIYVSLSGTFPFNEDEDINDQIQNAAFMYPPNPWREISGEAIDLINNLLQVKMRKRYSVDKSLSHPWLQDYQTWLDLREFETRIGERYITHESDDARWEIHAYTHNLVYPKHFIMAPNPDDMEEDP
Sequence of Rho-associated protein kinase 1 (Q13464 whole entry): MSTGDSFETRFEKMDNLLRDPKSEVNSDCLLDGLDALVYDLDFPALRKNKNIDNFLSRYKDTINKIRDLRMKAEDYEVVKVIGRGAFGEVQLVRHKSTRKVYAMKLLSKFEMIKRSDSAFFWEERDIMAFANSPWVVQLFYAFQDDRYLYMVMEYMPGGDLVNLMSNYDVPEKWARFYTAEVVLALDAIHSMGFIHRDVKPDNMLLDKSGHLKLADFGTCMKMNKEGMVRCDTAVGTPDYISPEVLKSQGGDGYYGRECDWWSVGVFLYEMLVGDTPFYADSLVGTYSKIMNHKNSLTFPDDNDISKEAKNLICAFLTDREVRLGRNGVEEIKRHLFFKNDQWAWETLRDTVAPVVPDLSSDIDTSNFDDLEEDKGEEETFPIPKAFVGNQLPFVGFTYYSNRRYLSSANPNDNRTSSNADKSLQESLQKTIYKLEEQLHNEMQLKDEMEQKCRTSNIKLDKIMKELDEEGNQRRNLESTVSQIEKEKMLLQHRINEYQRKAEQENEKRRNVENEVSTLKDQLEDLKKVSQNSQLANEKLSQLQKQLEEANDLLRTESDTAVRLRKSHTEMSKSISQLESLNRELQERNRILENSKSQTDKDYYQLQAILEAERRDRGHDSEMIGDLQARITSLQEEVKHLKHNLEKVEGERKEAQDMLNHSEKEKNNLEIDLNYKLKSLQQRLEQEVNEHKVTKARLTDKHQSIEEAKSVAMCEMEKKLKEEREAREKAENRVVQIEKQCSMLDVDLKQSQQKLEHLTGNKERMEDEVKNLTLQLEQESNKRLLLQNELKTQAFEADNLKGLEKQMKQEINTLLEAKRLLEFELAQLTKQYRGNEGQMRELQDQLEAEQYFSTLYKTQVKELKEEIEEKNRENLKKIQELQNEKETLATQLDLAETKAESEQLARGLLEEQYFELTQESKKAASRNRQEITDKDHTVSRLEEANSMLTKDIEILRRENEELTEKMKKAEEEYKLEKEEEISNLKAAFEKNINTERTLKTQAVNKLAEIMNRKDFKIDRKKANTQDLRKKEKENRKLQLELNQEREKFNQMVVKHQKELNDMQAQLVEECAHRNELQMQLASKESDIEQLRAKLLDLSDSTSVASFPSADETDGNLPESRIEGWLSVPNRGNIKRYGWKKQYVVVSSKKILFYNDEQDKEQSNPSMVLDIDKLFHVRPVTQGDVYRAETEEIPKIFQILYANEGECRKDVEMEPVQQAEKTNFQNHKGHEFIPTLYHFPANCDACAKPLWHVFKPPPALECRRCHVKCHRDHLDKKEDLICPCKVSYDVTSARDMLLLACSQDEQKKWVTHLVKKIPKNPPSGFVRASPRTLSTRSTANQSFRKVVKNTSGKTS
Sequence of Casein kinase I isoform alpha (P48729 whole entry, canonical isoform): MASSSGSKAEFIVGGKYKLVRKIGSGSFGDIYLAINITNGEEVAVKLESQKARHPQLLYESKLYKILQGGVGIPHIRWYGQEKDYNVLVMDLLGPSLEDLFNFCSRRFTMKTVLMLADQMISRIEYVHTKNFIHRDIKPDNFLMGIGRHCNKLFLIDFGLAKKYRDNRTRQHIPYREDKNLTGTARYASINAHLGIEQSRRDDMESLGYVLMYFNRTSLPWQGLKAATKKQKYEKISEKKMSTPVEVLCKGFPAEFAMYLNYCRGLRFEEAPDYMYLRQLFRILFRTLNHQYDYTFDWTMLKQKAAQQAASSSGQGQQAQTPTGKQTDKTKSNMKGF
Sequence of cAMP-dependent protein kinase catalytic subunit PRKX (P51817 whole entry): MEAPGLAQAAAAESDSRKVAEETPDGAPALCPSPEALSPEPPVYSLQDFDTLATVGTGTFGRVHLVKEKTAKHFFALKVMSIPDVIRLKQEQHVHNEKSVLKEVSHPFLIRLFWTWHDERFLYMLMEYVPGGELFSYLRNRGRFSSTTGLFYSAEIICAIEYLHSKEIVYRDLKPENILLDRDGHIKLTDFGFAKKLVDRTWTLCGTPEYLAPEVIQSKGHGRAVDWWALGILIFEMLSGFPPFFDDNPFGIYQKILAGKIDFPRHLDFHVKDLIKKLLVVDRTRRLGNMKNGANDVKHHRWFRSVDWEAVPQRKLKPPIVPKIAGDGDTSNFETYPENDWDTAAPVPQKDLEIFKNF
Sequence of SUMO-activating enzyme (Q9UBE0 whole entry): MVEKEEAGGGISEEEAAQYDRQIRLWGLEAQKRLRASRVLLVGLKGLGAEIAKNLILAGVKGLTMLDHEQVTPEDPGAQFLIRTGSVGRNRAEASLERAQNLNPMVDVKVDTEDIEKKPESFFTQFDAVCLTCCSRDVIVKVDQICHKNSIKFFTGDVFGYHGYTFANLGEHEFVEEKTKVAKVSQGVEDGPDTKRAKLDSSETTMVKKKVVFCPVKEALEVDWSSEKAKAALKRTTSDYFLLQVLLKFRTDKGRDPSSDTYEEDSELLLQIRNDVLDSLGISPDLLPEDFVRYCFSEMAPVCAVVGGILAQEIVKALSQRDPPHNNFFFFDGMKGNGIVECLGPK
Sequence of SUMO-activating enzyme (Q9UBT2 whole entry): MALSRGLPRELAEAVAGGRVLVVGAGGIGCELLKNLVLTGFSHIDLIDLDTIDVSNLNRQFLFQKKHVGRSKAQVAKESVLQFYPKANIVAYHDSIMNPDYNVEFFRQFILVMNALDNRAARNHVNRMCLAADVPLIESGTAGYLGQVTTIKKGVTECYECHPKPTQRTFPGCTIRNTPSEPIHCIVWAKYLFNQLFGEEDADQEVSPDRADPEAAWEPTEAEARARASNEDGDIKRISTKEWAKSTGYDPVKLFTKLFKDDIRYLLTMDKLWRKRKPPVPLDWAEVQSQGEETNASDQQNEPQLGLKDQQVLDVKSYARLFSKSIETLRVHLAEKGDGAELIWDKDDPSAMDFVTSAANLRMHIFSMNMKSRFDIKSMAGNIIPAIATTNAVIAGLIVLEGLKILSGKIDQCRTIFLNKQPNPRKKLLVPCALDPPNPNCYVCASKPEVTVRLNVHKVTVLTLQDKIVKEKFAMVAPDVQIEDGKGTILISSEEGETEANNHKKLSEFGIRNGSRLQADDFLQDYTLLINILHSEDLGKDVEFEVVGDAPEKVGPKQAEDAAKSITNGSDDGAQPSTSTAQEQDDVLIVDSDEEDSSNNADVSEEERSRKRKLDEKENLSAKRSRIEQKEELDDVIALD

O=C(NNc1cc(N2CCCC2)nc(N2CCCC2)n1)c1ccc([N+](=O)[O-])cc1
IC50 [1]: 2.55 µM (active) | IC50 [2]: 5.63 µM (active)

O=S(=O)(O)c1cccc2c(N=Nc3ccc(O)c4ncccc34)cccc12
IC50 [3]: 71.5 µM (active) | EC50 [4]: > 114 µM (inactive) | EC50 [5]: 8.8 µM (active)

O=C(Cc1cccs1)Nc1nc2ccccc2s1
Ki [6]: 0.631 µM (active) | Ki [7]: > 2.51 µM (inactive) | Ki [8]: 3.16 µM (active) | Ki [9]: 1.26 µM (active) | Ki [10]: 3.16 µM (active) | Ki [11]: > 6.31 µM (inactive)
